We go through 68 molecules from PubChem BioAssay AID179 (DTP/NCI, 2004).

As usually defined, the EC50 is the concentration needed to bring the measured effect to its halfway point. The term IC50 denotes the concentration that gives 50% inhibition.

The assay has as its system CEM cells HIV-1 protection, formazan growth assay. Description: NCI AIDS Antiviral Assay. The note with it: for IC50: measured here: growth of uninfected CEM cells. The procedure, abridged:
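Protection of CEM cells against HIV-1 was scored from cell growth (soluble formazan) across five concentrations, with parallel uninfected cells. Lack of protection may reflect toxicity.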

Calls of active or inactive are those of the source.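 How the source made its calls: active means compounds giving half or more protection of infected cells from virus-caused growth loss, again on retest; inactive means the rest.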 Bounds are passed on as bounds.

In the case of `Cn1cnc(N)c1S(=O)(=O)Nc1ccccc1Cl`, the EC50 was over 562 µM and the half-maximal inhibitory concentration (IC50) is over 562 µM. For the molecule `COC1/C=C/OC2(C)Oc3c(C)c(O)c4c(O)c(c(/C=N/N(C)c5ncnc6c5ncn6C5OC(CO)C(O)C5O)c(O)c4c3C2=O)NC(=O)C(C)=C/C=C/C(C)C(O)C(C)C(O)C(C)C(OC(C)=O)C1C` (stereo not drawn), the EC50 is over 200 µM and the 50% inhibitory concentration (IC50) is 110 µM.

In the case of `O=C1CC(c2ccc(Cl)cc2)C2(C(=O)NC(=O)NC2=O)C(c2ccc(Cl)cc2)C1` (stereo not drawn), the EC50 is over 75.9 µM and the IC50 amounted to 34.7 µM. On to `CO[C@@]12[C@H](COC(N)=O)C3=C(C(=O)C(C)=C(N)C3=O)N1C[C@@H]1N[C@@H]12`, for which the EC50 is over 17.4 µM and the 50% inhibitory concentration (IC50) amounted to 0.794 µM. Turning to `CCOC(=O)NC(C(=O)OCC)(N1CCN(c2cc3c(cc2F)c(=O)c(C(=O)O)cn3CC)CC1)C(F)(F)F` (stereo not drawn), the EC50 is over 200 µM and the IC50 is 145 µM. Regarding `CCOC(=O)c1cnc2c3c(noc13)CCC2`, the EC50 is over 200 µM and the IC50 is 34.7 µM. The matching figures for `CC1(C)OC2OC(C(O)CO)C(OC(=S)SSC(=S)OC3C(C(O)CO)OC4OC(C)(C)OC43)C2O1` (stereo not drawn): over 200 µM and 36.3 µM. For `O=C(NCCCN(CCCCN(CCCNC(=O)C(F)(F)F)Cc1ccccc1)Cc1ccccc1)C(F)(F)F`, the EC50 was over 200 µM and the IC50 amounted to 37.2 µM. Regarding `COc1cnn(-c2ccccc2)c(=O)c1SCc1ccc(Cl)cc1`, the EC50 was over 52.5 µM and the IC50 was 30.9 µM. As for `CC(C)(C)CC(C)(C)c1ccc(OCCOCC[N+](C)(C)Cc2ccccc2)cc1`, the result was inactive. For the molecule `CCC/C(Cl)=N\OC(=O)Nc1ccc(OC(F)(F)F)cc1`, the EC50 was over 20 µM and the half-maximal inhibitory concentration (IC50) came out at 5.37 µM. The matching figures for `CCCCC(C#N)C(=O)NC(N)=O` (stereo not drawn): over 39.8 µM and over 39.8 µM. In the case of `CCN(CC)CC(=O)Nc1ccc(C(=O)OCC(C)C)cc1`, the EC50 is over 200 µM and the IC50 came out at 26.9 µM.

Turning to `C=CC1(c2ccc(Br)cc2)OCCCO1`, the EC50 was over 200 µM and the IC50 is over 200 µM. With `COC(=O)c1nn(-c2ccc(Cl)cc2)c2nc3ccccc3c-2c1C(=O)OC`, the EC50 was over 32.4 µM and the concentration for half-maximal inhibition (IC50) is over 32.4 µM. Take `Cc1ccccc1NC(=O)C(=O)C(C1OC(=O)c2ccccc21)[N+](=O)[O-]` (stereo not drawn): the EC50 is over 708 µM and the IC50 came to 339 µM.

For the molecule `COc1ccc(-c2cc(-c3ccccc3)nc(N)c2-c2ccc3ccccc3c2)cc1`, the EC50 was over 200 µM and the concentration for half-maximal inhibition (IC50) was 2.45 µM.

As to `CCC/C(Cl)=N/OC(=O)Nc1cc(C(F)(F)F)ccc1OC`, the EC50 is over 200 µM and the half-maximal inhibitory concentration (IC50) was found to be 3.39 µM.

`COc1ccc(/C=C2\CN(C)CC3C2=NN(c2ccccc2)C3c2ccc(OC)cc2)cc1` (stereo not drawn): the EC50 was over 200 µM and the IC50 was over 200 µM. On to `CCn1nc2c3c(ncn3C(C)(C)O2)c1=O`, for which the EC50 was over 200 µM and the half-inhibitory concentration (IC50) is over 200 µM.

On to `CC(=O)OCC1OC(SC2=N/C(=C\c3cc4c(=O)c5ccccc5sc4s3)C(=O)N2c2ccccc2)C(OC(C)=O)C(OC(C)=O)C1OC(C)=O` (stereo not drawn), for which the EC50 was over 200 µM and the IC50 came to 115 µM.

Take `O=C(C/C(CCC(=O)N(Cc1ccccc1)Cc1ccccc1)=N/Nc1ccc([N+](=O)[O-])cc1[N+](=O)[O-])c1ccccc1`: the outcome was inactive.

Take `O=C1C=CC(=O)N1n1c(-c2ccccc2)n[nH]c1=O`: the concentration for a half-maximal effect (EC50) was 95.5 µM and the IC50 stood at 955 µM. In the case of `CO/N=C\c1c2c(O)c3c(O)c(C)c4c(c3c1O)C(=O)C(C)(O/C=C\C(OC)C(C)C(OC(C)=O)C(C)C(O)C(C)C(O)C(C)/C=C\C=C(\C)C(=O)N2)O4` (stereo not drawn), the EC50 was over 151 µM and the IC50 is 15.8 µM. In the case of `CCOC(=O)[C@H](C)OC(=O)[C@@](C)(NC(=O)c1ccccc1C(=O)OC)[C@@H]1NC=C(C(=O)OC)CS1`, the EC50 is over 200 µM and the IC50 was 53.7 µM.

Take `COc1ccc(N(C)C(=O)N(C)c2ccc([N+](=O)[O-])cc2)cc1`: the EC50 was over 200 µM and the IC50 was 9.33 µM.

`Cc1c2cc[nH]c(=O)c2cc2c(=O)c3cnccc3[nH]c12`: the EC50 is over 1.95 µM and the half-maximal inhibitory concentration (IC50) was over 1.95 µM. For `O=C(NC(=Nc1ccccc1)SCSC(=Nc1ccccc1)NC(=O)c1ccc(Cl)cc1)c1ccc(Cl)cc1`, the EC50 is over 100 µM and the half-inhibitory concentration (IC50) was over 100 µM. Regarding `Brc1cc2c(cc1Br)CN(c1ccccc1)C2`, the result was inactive. `O=C1c2c(n(Cc3ccccc3)c(=O)n2Cc2ccccc2)C(=O)N1Cc1ccccc1`: the EC50 was over 17 µM and the 50% inhibitory concentration (IC50) was over 17 µM.

Turning to `O=C(N/C(=C/c1cccc([N+](=O)[O-])c1)c1nc2ccc(Cl)cc2[nH]1)c1ccccc1`, the result was inactive. For the molecule `O=[N+]([O-])c1nccn1CCC[n+]1cccc2ccccc21`, the EC50 was over 200 µM and the half-maximal inhibitory concentration (IC50) was over 200 µM.

On to `CCC/C(Cl)=N/OC(NC(=O)OCC)(C(F)(F)F)C(F)(F)F`, for which the EC50 was over 200 µM and the half-inhibitory concentration (IC50) turned out to be 10 µM. The corresponding values for `Cc1c(C(=O)Nc2ccccc2)nnn1-c1ccnc2cc(C(F)(F)F)ccc12` are over 200 µM and over 200 µM.

With `O=C(CN1C(=O)CC(c2ccccc2)(c2ccccc2)C1=O)N1CCN(CCO)CC1`, the EC50 is over 200 µM and the IC50 came out at 151 µM. Turning to `Nc1ccc(/C=C/c2ccc(N)cc2S(=O)(=O)O)c(S(=O)(=O)O)c1`, the outcome was inactive. Regarding `CC(=O)N1c2ccccc2Sc2cc(C(O)(C(F)(F)F)C(F)(F)F)ccc21`, the EC50 is over 200 µM and the IC50 is 13.5 µM. `CCCOc1csc([C@H]2CCC3[C@@H]4CC=C5C[C@@H](O)CC[C@]5(C)C4CC[C@@]32C)n1` (stereo partly drawn): the EC50 was over 12 µM and the IC50 was over 12 µM. Take `N#CC(C#N)=Cc1ccccc1Br`: the EC50 is over 191 µM and the IC50 was 3.31 µM. The corresponding values for `CC(=O)NC1=NC(=O)/C(=C/c2ccccc2Cl)N1C` are over 200 µM and over 200 µM. The matching figures for `CCCCCCCCCCO/N=C\c1c2c(O)c3c(O)c(C)c4c(c3c1O)C(=O)C(C)(O/C=C\C(OC)C(C)C(OC(C)=O)C(C)C(O)C(C)C(O)C(C)/C=C\C=C(\C)C(=O)N2)O4` (stereo not drawn): over 200 µM and 3.02 µM. With `Nc1nc(F)nc2c1ncn2CC(O)CO` (stereo not drawn), the EC50 is over 1100 µM and the IC50 worked out at 1.78 µM. Turning to `CC(C)OP(=O)(OC(C)C)c1nn(-c2ccc([N+](=O)[O-])cc2)c(=N)s1`, the EC50 is over 129 µM and the IC50 is 93.3 µM. For `Cc1ccnc(NS(=O)(=O)c2ccc(NC(=O)Nc3ccc(Cl)c(C(F)(F)F)c3)cc2)n1`, the outcome was inactive. On to `O=C(O)c1ccc(-n2[se]c3ccccc3c2=O)cc1`, for which the EC50 is 7.24 µM and the IC50 stood at 20.4 µM. Regarding `Nc1ccc(S(=O)(=O)Cc2ccc(C(=O)O)cc2[N+](=O)[O-])cc1`, the EC50 is over 107 µM and the concentration for half-maximal inhibition (IC50) was over 107 µM. Regarding `CC(C)OC1NC(=O)Oc2ccccc21` (stereo not drawn), the EC50 is over 200 µM and the 50% inhibitory concentration (IC50) was determined as 132 µM. In the case of `O=c1c2cc(Br)ccc2oc2ccc(Br)cc12`, the outcome was inactive.

For `CC1=CP(=O)(c2ccccc2)CC1` (stereo not drawn), the EC50 was 0.0631 µM and the IC50 was over 200 µM.

In the case of `COc1ccc2c(c1)c1c(n2CCN2CCCCC2)-c2cccc(OC)c2CC1`, the EC50 is over 200 µM and the 50% inhibitory concentration (IC50) was found to be 11.2 µM. As for `COc1ccc2c(c1)CC[C@@H]1[C@@H]2CC[C@]2(C)[C@H](O)[C@H](O)C[C@@H]12`, the EC50 is over 200 µM and the IC50 turned out to be 32.4 µM.

With `CSc1cnc2ccccc2c1Sc1cn(C)c2ccccc2c1=O`, the EC50 is over 37.2 µM and the half-inhibitory concentration (IC50) came out at 31.6 µM. Turning to `COC(=O)[C@@]12CN(C)[C@@H](C(C)(C)C)N1C(=O)OC2c1ccccc1` (stereo partly drawn), the EC50 was over 200 µM and the IC50 was over 200 µM. Take `Cc1ccc(C(c2c(O)c3ccccc3n(-c3ccccc3)c2=O)c2c(O)c3ccccc3n(-c3ccccc3)c2=O)cc1`: the EC50 is over 12.6 µM and the IC50 was over 12.6 µM. On to `OC(C(c1ccccc1)c1ccccn1)(C(F)(F)F)C(F)(F)F` (stereo not drawn), for which the EC50 is over 200 µM and the 50% inhibitory concentration (IC50) was over 200 µM. Turning to `NC1Cc2ccccc2OC1=O` (stereo not drawn), the EC50 is over 200 µM and the IC50 is over 200 µM. For the molecule `CC(=O)O[C@@H]1CC[C@@]2(C)C(=O)C34C[C@@]5(C)C([C@@H](C)CCCC(C)C)CCC5(C)[C@](O)(O3)C(=O)[C@H]4C2C1(C)C` (stereo partly drawn), the EC50 is over 18.6 µM and the half-inhibitory concentration (IC50) is over 18.6 µM. On to `COc1cc(C(=O)N/N=C/N(C)C)cc(OC)c1OC`, for which the EC50 is over 200 µM and the IC50 is over 200 µM. For the molecule `CC(=O)Nc1ccc(N2C(=O)/C(=C\c3cccc(Oc4ccccc4)c3)S(=O)(=O)C2c2ccccc2)cc1` (stereo not drawn), the EC50 was over 200 µM and the IC50 is 26.9 µM. Consider `Oc1[nH]c2ccccc2c1N=NC(=S)Nc1ccc(Cl)cc1`, for which the EC50 was over 200 µM and the IC50 worked out at 24.5 µM. Regarding `CCOC(=O)C1=C(C)N(C2OC(COC(C)=O)C(OC(C)=O)C(OC(C)=O)C2OC(C)=O)C(=O)NC1c1ccccc1` (stereo not drawn), the EC50 is over 31.6 µM and the IC50 was over 31.6 µM. For `C=C[C@@]1(O)CC[C@@H](C(C)(C)C)C[C@H]1CC(=C)Br`, the outcome was inactive. On to `COc1cc(/C=C2\C(=O)N(C(=O)Cc3ccccc3)N=C2C)ccc1O`, for which the EC50 was over 53.7 µM and the IC50 was over 53.7 µM. Regarding `Cc1nc(NS(=O)(=O)c2ccc(NC(=O)c3ccccc3SC(=O)CCCC[n+]3ccccc3)cc2)oc1C`, the EC50 is 16.6 µM and the IC50 turned out to be 52.5 µM. For `COc1ccc(/C=C2/SC(=S)NC2=O)c(OC)c1OC`, the EC50 is over 200 µM and the half-maximal inhibitory concentration (IC50) was determined as 7.76 µM. The corresponding values for `Cc1ccnc2c1NC(=O)c1cccnc1N2C1CC1` are 0.0437 µM and 195 µM. The corresponding values for `O=C(c1ccccc1)C1(c2ccccc2)SSC1(C(=O)c1ccccc1)c1ccccc1` (stereo not drawn) are over 100 µM and over 100 µM.

`O=C1C(Br)=C(Br)C(=O)c2ccc(=O)ccc21`: the EC50 was over 55 µM and the 50% inhibitory concentration (IC50) worked out at 9.77 µM.
